Test results taken from patent publication US8673578B2, “Methods of identifying antagonists of the hTAS2R46 bitter taste receptor” (Deutsches Institut für Ernahrungsforschung Potsdam-Rehbrücke, priority 2009, dated 2014).

Key:
hTAS2R8 = target: T1, hTAS2R8 (Homo sapiens, UniProt Q9NYW2); assay: calcium imaging (FLIPR), activation of hTAS2R-transfected HEK293T-Gα16gust44 cells; type: cell-based; conditions: 100 μM test substance, bath application
T1 construct: expressed in transfected cells; host or cells: HEK293T cells stably expressing chimeric Gα16gust44, transient transfection
T1 sequence (Q9NYW2 1-309): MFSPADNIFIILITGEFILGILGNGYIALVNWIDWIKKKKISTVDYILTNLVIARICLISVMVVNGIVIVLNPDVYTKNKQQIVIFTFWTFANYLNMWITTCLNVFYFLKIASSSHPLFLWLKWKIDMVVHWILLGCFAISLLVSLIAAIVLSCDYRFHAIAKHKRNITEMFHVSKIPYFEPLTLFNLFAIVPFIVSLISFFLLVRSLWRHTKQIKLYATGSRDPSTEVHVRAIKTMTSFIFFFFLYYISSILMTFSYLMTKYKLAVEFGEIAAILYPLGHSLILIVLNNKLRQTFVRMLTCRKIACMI
Description: (§1) Human TAS2R cDNAs were cloned into pcDNA5/FRT (Invitrogen, San Diego, Calif.). For adequate plasma membrane targeting, receptor cDNA was fused to the aminoterminal sequence of the rat somatostatin type 3 receptor at the aminoterminus of the recombinant protein (Bufe, B., T. Hofmann, et al. (2002) Nat Genet. 32(3): 397-401). For immunological detection, the Herpes simplex Glycoprotein D epitope was supplemented at the carboxyterminus of the recombinant protein (Bufe et al., supra). Receptor constructs were transiently transfected into HEK293T cells stably expressing the chimeric G protein subunit Gα16gust44 (Ueda, T., S. Ugawa, et al. (2003) J Neurosci 23(19): 7376-80) using Lipofectamine 2000 (Invitrogen, San Diego, Calif.) in 96-well plates.
(§2) Calcium Imaging experiments were performed 24 h after transfection using a Fluorometric Imaging Plate Reader (FLIPR, Molecular Devices, Munich, Germany) as previously described (Bufe et al., supra). Taste active compounds were ordered from Sigma (Sigma-Aldrich, Taufkirchen, Germany). Absinthin, 3β hydroxy dihydro costunolide and 3β hydroxy pelenolide were kindly provided by Giovanni Appendino (Novara, Italy). Test substances were directly dissolved in C1 buffer (130 mM NaCl, 10 mM Na-Hepes, 10 mM Glucose, 5 mM KCl, 2 mM CaCl2, pH 7.4) or in DMSO, respectively. DMSO stocks were further diluted in C1 buffer not exceeding a final DMSO concentration of 1% on the cells. For the investigation of antagonistic effects, test substances were premixed. Agonists were applied at concentrations corresponding to EC90, except where indicated otherwise (Table 2). Data were collected from 3 independent experiments performed in quadruplicates and processed with SigmaPlot (SPSS, Chicago, Ill.). Fluorescence signals after application of test substances were corrected for and normalized to background fluorescence (ΔF/F═(F−F0)/F0), and baseline noise was subtracted. Calculation of dose-response curves was done by nonlinear regression using the function f(y)=((a−d)/(1+(x/EC50)^nH)+d).
(§3) In a first series of experiments we tested the two sesquiterpene lactones 3β hydroxy dihydro costunolide (formula (I) in FIG. 1) and 3β hydroxy pelenolide (formula (II) in FIG. 1) for their ability to activate hTAS2 receptor-expressing HEK293T cells.
(§4) Signal amplitudes were comparatively small (FIG. 2C).

hTAS2R1 = target: T2, hTAS2R1 (Homo sapiens, UniProt Q9NYW7); assay: as above; type: cell-based; conditions: 100 μM test substance, bath application
T2 construct: expressed in transfected cells; host or cells: HEK293T cells stably expressing chimeric Gα16gust44, transient transfection
T2 sequence (Q9NYW7 1-299): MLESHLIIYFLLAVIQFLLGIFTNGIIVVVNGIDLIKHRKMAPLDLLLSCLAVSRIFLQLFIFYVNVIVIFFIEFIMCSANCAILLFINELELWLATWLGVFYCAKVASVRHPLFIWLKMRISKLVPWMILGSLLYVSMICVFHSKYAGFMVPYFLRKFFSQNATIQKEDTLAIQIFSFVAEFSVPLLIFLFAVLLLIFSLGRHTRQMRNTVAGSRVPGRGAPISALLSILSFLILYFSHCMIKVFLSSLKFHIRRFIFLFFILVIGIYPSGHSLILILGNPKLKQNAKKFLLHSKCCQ
Description: as §1, §2, §3, §4

hTAS2R4 = target: T3, hTAS2R4 (Homo sapiens, UniProt Q9NYW5); assay: as above; type: cell-based; conditions: 100 μM test substance, bath application
T3 construct: expressed in transfected cells; host or cells: HEK293T cells stably expressing chimeric Gα16gust44, transient transfection
T3 sequence (Q9NYW5 1-299): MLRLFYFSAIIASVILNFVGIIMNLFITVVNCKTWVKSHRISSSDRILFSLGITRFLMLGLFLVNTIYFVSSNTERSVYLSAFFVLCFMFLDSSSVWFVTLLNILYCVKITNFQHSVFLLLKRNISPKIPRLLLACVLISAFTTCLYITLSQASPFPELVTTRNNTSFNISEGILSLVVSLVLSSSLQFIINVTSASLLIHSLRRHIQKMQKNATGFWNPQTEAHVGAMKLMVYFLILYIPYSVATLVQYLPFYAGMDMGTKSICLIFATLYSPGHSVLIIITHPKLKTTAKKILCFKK
Description: as §1, §2, §3, §4

other hTAS2 receptors = assay: as above; type: cell-based, human; conditions: 100 μM test substance, bath application
Description: as §1
Calcium Imaging experiments were performed 24 h after transfection using a Fluorometric Imaging Plate Reader (FLIPR, Molecular Devices, Munich, Germany) as previously described (Bufe et al., supra). Taste active compounds were ordered from Sigma (Sigma-Aldrich, Taufkirchen, Germany). Absinthin, 3β hydroxy dihydro costunolide and 3β hydroxy pelenolide were kindly provided by Giovanni Appendino (Novara, Italy). […] Fluorescence signals after application of test substances were corrected for and normalized to background fluorescence (ΔF/F═(F−F0)/F0), and baseline noise was subtracted. […]

hTAS2R44 = target: T4, hTAS2R44 (Homo sapiens, UniProt P59538, L162M); assay: calcium imaging (FLIPR), effect on agonist-dependent hTAS2R activation; type: cell-based; conditions: 100 μM test substance; agonist aristolochic acids 3 μM (EC90); agonist alone = 100%
T4 construct: expressed in transfected cells; host or cells: HEK293T cells stably expressing chimeric Gα16gust44, transient transfection
T4 sequence (P59538 1-309 L162M): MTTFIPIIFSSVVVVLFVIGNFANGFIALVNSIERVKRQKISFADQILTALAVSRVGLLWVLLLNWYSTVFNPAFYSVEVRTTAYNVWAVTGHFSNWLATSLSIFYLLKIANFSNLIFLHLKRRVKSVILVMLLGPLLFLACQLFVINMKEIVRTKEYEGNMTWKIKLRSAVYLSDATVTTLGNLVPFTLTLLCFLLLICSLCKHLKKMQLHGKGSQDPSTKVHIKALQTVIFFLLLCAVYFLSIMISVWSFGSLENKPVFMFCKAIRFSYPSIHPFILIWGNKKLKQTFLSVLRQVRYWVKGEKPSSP
Description: as §1, §2
To test 3β hydroxy dihydro costunolide and 3β hydroxy pelenolide for antagonistic or enhancing effects on hTAS2R activation, transfected cells were stimulated with cognate agonist bitter substances at EC90 concentrations (Table 2) without 3β hydroxy dihydro costunolide and 3β hydroxy pelenolide. The cellular responses after application of the agonist alone were set to 100%, responses obtained after coapplication of agonists and 100 μM 3β hydroxy dihydro costunolide or 100 μM 3β hydroxy pelenolide are shown relative to this value (FIG. 4).

Compound | calcium response of hTAS2R8-transfected cells (hTAS2R8) | calcium response of hTAS2R1-transfected cells (hTAS2R1) | calcium response of hTAS2R4-transfected cells (hTAS2R4) | calcium response of cells expressing any of the other TAS2Rs (other hTAS2 receptors) | agonist-dependent response of hTAS2R44-expressing cells on coapplication (hTAS2R44)
C/C1=C\C[C@H](O)/C(C)=C/[C@H]2OC(=O)[C@@H](C)C2CC1 (stereo partly drawn) [3β hydroxy dihydro costunolide] | responded | responded | responded | did not respond | 
C/C1=C\C[C@H](O)[C@@H](C)C[C@H]2OC(=O)[C@@H](C)[C@@H]2CC1 [3β hydroxy pelenolide] |  |  |  |  | moderately attenuating effect
